# Test results as given in PMC7179274, “6′-β-Fluoro-Homoaristeromycin and 6′-Fluoro-Homoneplanocin A Are Potent Inhibitors of Chikungunya Virus Replication through Their Direct Effect on Viral Nonstructural Protein 1” (Antimicrobial Agents and Chemotherapy, 2020).
# Read-outs that look alike come from different tables or passages of the source.
# System: rCHIKV mutants
# Assay: microbe, parasite or virus in culture
# Format: cell-based, Chikungunya virus
# Settings: for EC50: read-out: Mean EC50 ± SD
smiles,measurement,setting,value
"Nc1ncnc2c1ncn2C1C(F)=C(CCO)C(O)C1O (centres unmarked) [FHNA, 6′-fluoro-homoneplanocin A]",Fold resistance,"rCHIKV nsP1-G230R + nsP1-K299E + nsP3-*524R, EC50 mutant/EC50 wt",122
same,EC50,rCHIKV nsP1-G230R + nsP1-K299E + nsP3-*524R,25600 ± 100 nM
same,Fold resistance,"rCHIKV nsP1-G230R + nsP1-K299E, EC50 mutant/EC50 wt",87
same,EC50,rCHIKV nsP1-G230R + nsP1-K299E,18200 ± 4200 nM
same,Fold resistance,"rCHIKV nsP1-G230R, EC50 mutant/EC50 wt",2
same,EC50,rCHIKV nsP1-G230R,500 ± 330 nM
same,Fold resistance,"rCHIKV nsP1-K299E, EC50 mutant/EC50 wt",2
same,EC50,rCHIKV nsP1-K299E,500 ± 80 nM
same,Fold resistance,"rCHIKV nsP1-L455P, EC50 mutant/EC50 wt",5
same,EC50,rCHIKV nsP1-L455P,1100 ± 1100 nM
same,Fold resistance,"rCHIKV nsP1-R171Q + nsP2-A511S + nsP3-H342Q, EC50 mutant/EC50 wt",49
same,EC50,rCHIKV nsP1-R171Q + nsP2-A511S + nsP3-H342Q,10200 ± 2600 nM
same,Fold resistance,"rCHIKV nsP1-R171Q + nsP2-A511S, EC50 mutant/EC50 wt",33
same,EC50,rCHIKV nsP1-R171Q + nsP2-A511S,6900 ± 2600 nM
same,Fold resistance,"rCHIKV nsP1-R171Q + nsP3-A137V, EC50 mutant/EC50 wt",18
same,EC50,rCHIKV nsP1-R171Q + nsP3-A137V,3900 ± 1300 nM
same,Fold resistance,"rCHIKV nsP1-R171Q, EC50 mutant/EC50 wt",3
same,EC50,rCHIKV nsP1-R171Q,580 ± 370 nM
same,Fold resistance,"rCHIKV nsP2-A511S + nsP3-H342Q, EC50 mutant/EC50 wt",1
same,Fold resistance,"rCHIKV nsP2-A511S, EC50 mutant/EC50 wt",9
same,EC50,rCHIKV nsP2-A511S,1900 ± 600 nM
same,Fold resistance,"rCHIKV nsP2-T675A + nsP3-H342Q (H342Q reverted back to wt), EC50 mutant/EC50 wt",36
same,EC50,rCHIKV nsP2-T675A + nsP3-H342Q (H342Q reverted back to wt),7600 ± 200 nM
same,Fold resistance,"rCHIKV nsP2-T675A + nsP3-H342Q + nsP3-*524R, EC50 mutant/EC50 wt",48
same,EC50,rCHIKV nsP2-T675A + nsP3-H342Q + nsP3-*524R,10100 ± 6800 nM
same,Fold resistance,"rCHIKV nsP2-T675A, EC50 mutant/EC50 wt",4
same,EC50,rCHIKV nsP2-T675A,800 ± 80 nM
same,Fold resistance,"rCHIKV nsP3-*524R, EC50 mutant/EC50 wt",40
same,EC50,rCHIKV nsP3-*524R,8500 ± 2300 nM
same,Fold resistance,"rCHIKV nsP3-G177R, EC50 mutant/EC50 wt",2
same,EC50,rCHIKV nsP3-G177R,510 ± 20 nM
same,Fold resistance,"rCHIKV nsP3-H342Q, EC50 mutant/EC50 wt",5
same,EC50,rCHIKV nsP3-H342Q,940 ± 10 nM
same,Fold resistance,"rCHIKV wt, EC50 recombinant mutant/EC50 wt",1
same,EC50,"rCHIKV wt, VeroE6, MOI 0.05",210 ± 70 nM
